Reference: PMC8308784, “Novel Purine Chemotypes with Activity against Plasmodium falciparum and Trypanosoma cruzi” (Pharmaceuticals, 2021)
Where “and” joins values, the source holds several entries; their conditions need not be identical. Equal values may be shown once. Read-outs that look alike come from different tables or passages of the source.

How the values were obtained:
[1] = test system: T. cruzi Tulahuen strain expressing β-galactosidase; assay: anti-T. cruzi dose-response growth inhibition assay (Vero cells plus trypomastigotes, CPRG readout); format: cell-based; conditions: Vero cells plus trypomastigotes, MOI 1, four days, mean (SD), read-out: T. cruzi IC50 a (anti-T. cruzi assay)
Experimental: T. cruzi parasites from the Tulahuen strain (discrete typing unit (DTU) VI) expressing β-galactosidase were maintained in culture by the infection of LLC-MK2 cells in DMEM supplemented with 2% FBS and 1% penicillin–streptomycin–glutamine (PSG), as described in [52]. When free-swimming trypomastigotes were released to the culture medium, they were centrifuged for 7 min at 2500 rpm and allowed to swim out of the pellet. Trypomastigotes were used to maintain the parasite cycle, or for the performance of the antiparasitic assays.
T. cruzi growth was primarily analyzed under three different concentrations ([…]) of the 81 compounds. Conditions were tested in triplicate for every concentration. Z-values varied between 0.81 and 0.92 in the different plates analyzed. Selected compounds (34.6% potential hit rate) were further analyzed via standard growth inhibition assays. The Z-values of dose–response assays correlated with those previously reported. For both assays, Vero cells and trypomastigotes from the Tulahuen T. cruzi strain expressing β-galactosidase were harvested, centrifuged, and resuspended in DMEM without phenol red supplemented with 1% PSG, 2% FBS, 1 mM sodium pyruvate, and 25 mM HEPES. Vero cells and trypomastigotes were counted, diluted at a concentration of 1 × 10^6 cells/mL each, and mixed 1:1 (v/v). Then, 100 μL of that mixture was added per well to the plates already containing the compounds. Each well contained 50,000 host cells and 50,000 parasites, i.e., multiplicity of infection (MOI) = 1. BNZ was used as control of maximal drug growth inhibition in each round, whereas each plate contained its own negative control (maximum parasite growth; Vero cells plus parasites without drugs) and positive control (minimum parasite growth; trypomastigote forms alone marking an enzymatic zero time or baseline galactosidase activity). After four days at 37 °C, 50 µL of a PBS solution containing 0.25% NP40 and 500 µM chlorophenol red-β-D-galactopyranoside (CPRG) substrate were added per well [32]. Plates were incubated at 37 °C for 4 h, and their absorbance read out at 590 nm using an Epoch Gene5 spectrophotometer.
(§1) Absorbance values derived from the anti-T. cruzi assays and fluorescence values from the anti-P. falciparum and cell toxicity assays were normalized to the controls. In the primary screening at three fixed doses, the compounds’ inhibitory activity was expressed as a percentage of the negative control (100% parasitic growth). In dose–response assays, the compounds’ IC50 and TC50 values were determined with GraphPad Prism 7 software (version 7.00, 2016), using a non-linear regression analysis model defined by the following equation: Y=100 ÷(1+10^((LogIC50−X)×HillSlope))

[2] = test system: Vero cells; assay: Vero cell toxicity assay (alamarBlue); format: cell-based, green monkey; conditions: 4 days; minimum value of the 95% CI, except BNZ (mean (SD))
Experimental: (§2) Human erythrocytes were purified from B+ Rh+ blood samples and maintained at 4 °C in incomplete RPMI medium. Vero (green monkey kidney epithelial cells), LLC-MK2 (Rhesus monkey kidney epithelial cells), and HepG2 (human liver epithelial cells) cultures were cultivated in DMEM supplemented with 1% penicillin–streptomycin (PS) and 10% heat-inactivated fetal bovine serum (FBS) at 37 °C, 5% CO2, and >95% humidity, as described in [31]. HepG2 cells were also supplemented with 10% non-essential amino acids. Vero and MK2 cells were passaged twice per week at 1:12 ratios, while HepG2 cells were passaged at a 1:8 ratio.
(§3) Vero and HepG2 cells were detached, centrifuged, and resuspended in DMEM without phenol red. Cell viability was checked upon cell counting with trypan blue staining. Then, Vero and HepG2 cells were diluted at a concentration of 5 × 10^5 and 3.2 × 10^5 cells per mL, respectively, before adding 100 µL per well to the 96-well plate. Each run contained its own negative (untreated cells) and positive (medium alone) controls. Plates were incubated at 37 °C for 4 days in the case of Vero, or 2 in the case of HepG2 cells. Assay readout was made by adding 50 µL per well of a PBS solution containing 10% alamarBlue reagent (Thermo Fisher Scientific); then, plates were incubated for another 6 h at 37 °C, before recording the fluorescence intensity with a Tecan Infinite M Nano+ reader (excitation: 530 nm, emission: 590 nm).
as §1

[3] = test system: HepG2 cells; assay: HepG2 cell toxicity assay (alamarBlue); format: cell-based, human; conditions: 2 days; minimum value of the 95% CI, except BNZ (mean (SD))
Experimental: as §2, §3, §1

[4] = test system: T. cruzi intracellular amastigotes; assay: Antiamastigote growth inhibition assay; format: cell-based; conditions: intracellular amastigotes in Vero cells, mean (SD), read-out: T. cruzi IC50 b (antiamastigote assay)
Experimental: Vero cells were seeded in T-175 flasks (5 × 10^6 cells per flask) in DMEM supplemented with 1% penicillin–streptomycin and 10% FBS, and cultured for 24 h. Then, cells were washed once with PBS, and free-swimming trypomastigotes (1 × 10^7 trypomastigotes per flask; MOI = 1) in assay medium were added and allowed 18 h to infect. After that, infected cell monolayers were washed with PBS and detached. Cells were counted and diluted to a concentration of 5 × 10^5 cells per mL, before adding 100 µL per well to test plates already containing the drugs dispensed as described above. In all cases, we included BNZ as control drug, and each plate contained its own negative (Vero cells and parasites) and positive (Vero cells) controls.
as §1

[5] = test system: P. falciparum 3D7; assay: P. falciparum primary screening at three fixed concentrations; format: cell-based; conditions: average of at least three experiments
Experimental: Apicomplexan parasite cultures were maintained at 3% hematocrit under an atmosphere of 37 °C in 93% N2, 5% CO2, and 2% O2, following standard methods. Synchronized cultures were obtained via 5% sorbitol lysis.
[…] Conditions were tested in triplicate for every concentration, and the test was repeated when the standard deviation was above 10% for any concentration. Z-values varied between 0.83 and 0.98 in the different plates analyzed. Selected compounds (12.3% potential hit rate) were further analyzed via standard growth inhibition assays, carried out as previously described in [54]. Briefly, parasitemia was adjusted to 1–1.3%, with >90% rings after sorbitol synchronization. Two hundred microliters of parasite culture were plated in 96-well microplates and incubated for 48 h at 37 °C in the presence of decreasing concentrations of the tested compounds, in triplicate. Parasitemia was determined by fluorescence-assisted cell sorting (FACS). Non-infected RBCs and samples containing parasitized RBCs (including controls with DMSO as carrier solvent) were diluted in PBS to a final concentration of ~1–10 × 10^6 cells/mL. The cell suspension was stained with SYTO 11 (0.5 mM stock in DMSO, Thermo Fisher Scientific, Waltham, MA, USA), to a final concentration of 0.5 μM. Samples were analyzed in a Becton Dickinson FACSCalibur. Sample excitation was carried out using a 488-nm, air-cooled argon-ion laser at a power of 15 mW, using forward and side scatter to gate the RBC population, and SYTO 11 green fluorescence (530 nm, FITC filter) was collected in a logarithmic scale. The single-cell population was selected on a forward–side scattergram, and the green fluorescence from this population was analyzed. Parasitemia was expressed as the number of parasitized cells per 100 erythrocytes.
as §1

Compound	IC50 ([1]; Trypanosoma cruzi, TULAHUEN, 96 h) [µM]	Vero Cells TC50 [2]	HepG2 Cells TC50 [3]	IC50 ([4]; Trypanosoma cruzi) [µM]	Primary screening, parasite growth relative to the negative control ([5]; compound at 1 µM) [%]	Primary screening, parasite growth relative to the negative control ([5]; compound at 10 µM) [%]	Primary screening, parasite growth relative to the negative control ([5]; compound at 100 µM) [%]	IC50 [1] [µM]	IC50 [4] [µM]
O=C(Cn1ccnc1[N+](=O)[O-])NCc1ccccc1 [BNZ, benznidazole, reference compound]	1.72	209.5 (15.0) µM and 209.5 µM	255.3 (10.8) µM and 255.3 µM	1.82					
CN1CCN(n2cnc3c(OCc4ccccc4)ncnc32)CC1 [Compound 29]		>1000 µM	>1000 µM		100.58	98.35	63.21	4.86	157
